# Where a SMILES comes first, the peptide text is derived from it.
# System: photoreceptors of rd10 mice
# Assay: ONL thickness (histology, spider plot), rd10 mice
# Assay type: in vivo, mouse
# Conditions: for OS length and ONL thickness vs vehicle-treated or untreated eyes: daily eye drops, P21
# Experimental: Both eyes were oriented before enucleation to allow sectioning along the dorsal/ventral axis. Enucleated eyes from rd10 and rd10/Serpinf1^-/- mice were incised in the cornea and fixed in 2.5% glutaraldehyde for 20 min and then in 10% neutral buffered formalin at 4 °C for at least 48 h, followed by paraffin embedding, sectioning, and staining with either H&E or immunofluorescence procedures. Slides containing retinal sections were deparaffinized by immersing the slides in various subsequent ethanol dilutions(100%, 95%,70% and 50%), then rinsed with phosphate-buffered saline, pH 7.4 (PBS, Quality Biological, 119-069-101), followed by incubation in blocking buffer containing 0.5% normal donkey serum (Abcam, ab7475), 0.5% bovine serum albumin (BSA, GoldBio, A-420-100), 0.1% Triton X-100 (Sigma, T8787-100) in PBS pH 7.4 for 2 h at room temperature. For fluorescence microscopy, antibodies, and 0.1 µg/ml DAPI were used to immunostain and counterstain the nuclei, respectively. Antibodies used in the study are listed in Supplementary Table 3. Images were acquired using a ZEIS 700 confocal microscope. Fluorescence intensity was quantified using ImageJ, and a rectangle was selected around regions of interest (ROIs), channels were split for multiple antibodies, threshold was adjusted, noise was de-speckled, and fluorescence intensity was measured.
# To generate spider plots, the ONL thickness was measured from images passing through the optic nerve (ON) acquired with light microscopy of the retina sections stained with H&E or images of retina sections stained with DAPI with a dorsal-ventral orientation. The ONL thickness in the entire retina sections was measured at 5 different positions from both sides of the ON using ImageJ[28]. Alternatively, for DAPI stained images, a customed macro implemented in ImageJ was used to select only the ONL.
# Fig. 4 Effect of eyedrops of 17-mer and H105A peptides on photoreceptor morphology of rd10 and rd10/Serpinf1^-/- mice. a Illustration of the experimental timeline of peptide application. RE and LE refer to the right and left eyes, respectively. Histological Evaluation. Representative microphotographs of retina sections from rd10 (b) and rd10/Serpinf1^-/- (c) mice treated with 17-mer, H105A, or R99A peptides at 1 mg/ml, or with vehicle (HBSS), compared to wild type C57BL/6 J mice. Sections were stained with hematoxylin and eosin. Spider Plot illustrate the thickness of the outer nuclear layer (ONL) in rd10 (d) and rd10/Serpinf1^-/- (e) mice. Five retinas (n = 5) per group were analyzed and each data point represents the average ± SD per location relative to the optic nerve (ON), analyzed using One-way ANOVA with Šídák’s multiple comparisons test. […]
Structure (SMILES),"ONL thickness (daily eye drops 5 µl of 1 mg/ml P15-P24, assessed P25)",OS length and ONL thickness vs vehicle-treated or untreated eyes,"ONL thickness (eye drops every other day P15-P23, assessed P25)"
CC[C@H](C)[C@H](NC(=O)[C@H](CC(C)C)NC(=O)[C@H](CC(=O)O)NC(=O)[C@H](Cc1ccc(O)cc1)NC(=O)[C@H](Cc1ccc(O)cc1)NC(=O)[C@H](CC(C)C)NC(=O)[C@H](C)NC(=O)[C@H](CCCNC(=N)N)NC(=O)[C@H](C)NC(=O)[C@@H](NC(=O)[C@@H](NC(=O)[C@H](CO)NC(=O)[C@H](CCC(=O)O)NC(=O)[C@@H](NC(=O)[C@H](CCCNC(=N)N)NC(=O)[C@@H](N)CCC(N)=O)[C@@H](C)O)[C@@H](C)CC)[C@@H](C)CC)C(=O)N[C@@H](CO)C(=O)O [H105A] (H-QRTESIIARALYYDLIS-OH),a rescue in the ONL thickness,longer OS and thicker outer nuclear layer,a rescue in the ONL thickness
CC[C@H](C)[C@H](NC(=O)[C@H](CC(C)C)NC(=O)[C@H](CC(=O)O)NC(=O)[C@H](Cc1ccc(O)cc1)NC(=O)[C@H](Cc1ccc(O)cc1)NC(=O)[C@H](CC(C)C)NC(=O)[C@H](C)NC(=O)[C@H](CCCNC(=N)N)NC(=O)[C@H](Cc1c[nH]cn1)NC(=O)[C@@H](NC(=O)[C@@H](NC(=O)[C@H](CO)NC(=O)[C@H](CCC(=O)O)NC(=O)[C@@H](NC(=O)[C@H](C)NC(=O)[C@@H](N)CCC(N)=O)[C@@H](C)O)[C@@H](C)CC)[C@@H](C)CC)C(=O)N[C@@H](CO)C(=O)O [R99A] (H-QATESIIHRALYYDLIS-OH),,no effect,

# Source: PMC11928584, “H105A peptide eye drops promote photoreceptor survival in murine and human models of retinal degeneration” (Communications Medicine, 2025)
